Assay results as given in PubChem BioAssay AID504539 (Broad Institute, 2011).

Test system: Cell-based prion protein 5' UTR reporter, plate reader
Assay: prion protein 5' UTR mRNA inhibitors – cell-based, plate reader, cherry-picked samples, dose response (AID 504539)

Row | Structure (SMILES) | AC50
1 | C[C@H]1[C@@H](OS(=O)(=O)O)C[C@@H]2C[C@H]([C@@H](O)c3cc(=O)[nH]c(=O)[nH]3)NC3=NC[C@H]1N32 | 2560 nM
2 | COc1ccc(CCc2cc(OC)c(OC)c(OC)c2)cc1 | 40 nM
3 | O=C(NC1=NCCS1)C1COc2ccccc2O1 (centres undefined) | 296 nM
4 | COc1ccc(/C=C2\SC(=O)N(CCCC(=O)Nc3cc(Cl)ccc3C(=O)O)C2=O)cc1 | 242 nM
5 | CCC(C)Cn1c(O)cc2nn(-c3nc4ccccc4s3)c(=O)c-2c1C (centres undefined) | 62 nM
6 | C[C@@H]1O[C@@H](O[C@H]2C[C@@H](O)[C@]3(CO)[C@H]4[C@H](O)C[C@]5(C)[C@@H](C6COC(=O)C6)CC[C@]5(O)[C@@H]4CC[C@]3(O)C2)[C@H](O)[C@H](O)[C@H]1O (some centres undefined) | 915 nM
7 | CC(C)(C)c1ccc(C(=O)Nc2ccc(CC(=O)O)cc2)o1 | 312 nM
8 | COC(=O)Cc1[nH]n(-c2nc3ccccc3s2)c(=O)c1C(C)=Nc1ccc(C)cc1 | 401 nM
9 | O=C(Nc1cccc(C(=O)O)c1)Nc1ccc2c(c1)OCO2 | 397 nM
10 | Cc1ccc2nc(NC(=O)c3ccccn3)sc2c1 | 220 nM
11 | CC(=O)O[C@H]1C(=O)[C@@]2(C)[C@H]([C@H](OC(=O)c3ccccc3)[C@]3(O)C[C@H](OC(=O)[C@H](O)[C@@H](NC(=O)c4ccccc4)c4ccccc4)C(C)=C1C3(C)C)[C@]1(OC(C)=O)CO[C@@H]1C[C@@H]2O | 227 nM
12 | CN1C2CCC1/C(=C/c1ccccn1)C(=O)/C2=C\c1ccccn1 | 773 nM
13 | CCOc1ccccc1C1CC(=O)Nc2cc3c(cc21)OCCO3 (centres undefined) | 3820 nM
14 | O=C(c1ccc(Br)cc1)c1cc([N+](=O)[O-])ccc1N1CCCCC1 | 628 nM
15 | Fc1ccc(-c2nnc(NC3=NCCCCC3)o2)cc1 | 372 nM
16 | Cc1ccc(NC(=O)c2cc3ccccc3oc2=O)cc1S(=O)(=O)N(C)C | < 38 nM
17 | COc1ccc(C(=O)Nc2ccccc2C(=O)N/N=C/c2ccc(O)c(OC)c2)cc1 | 1400 nM
18 | Cc1nn(-c2ccccc2)c(C)c1/C=N/NC(=O)c1cc(-c2cccs2)[nH]n1 | 1070 nM
19 | Cc1ccc(-c2nc(-c3ccccn3)no2)cc1Cl | 351 nM
20 | Cc1nn(-c2ccccc2Cl)c(Cl)c1/C=N/Nc1cccc(C(=O)O)c1 | 576 nM
21 | CC(C)(C)C1C/C(=C/c2ccccn2)C(=O)/C(=C/c2ccccn2)C1 (centres undefined) | 815 nM
22 | Cc1ccc(C(=O)CN2C(=O)c3ccccc3S2(=O)=O)cc1 | 823 nM

Row | Structure (SMILES) | AC50
23 | Cn1cccc1/C=C1\SC(=Nc2ccc(O)cc2)NC1=O | 630 nM
24 | COc1cc(C(=O)N2CCN(c3cc(Cl)ccc3Cl)CC2)cc(OC)c1OC | 1120 nM
25 | CCN1C=CC(=C2C(=O)c3ccccc3C2=O)C=C1 | 89 nM
26 | CC(=O)OC1CC2(O)C3CCC4CC(O)CCC4(C)C3CCC2(C)C1C1=CC(=O)OC1 (centres undefined) | 92 nM
27 | CCN(CC)c1ccc2c(cc1=O)[C@@H](NC)CCc1cc(OC)c(OC)c(OC)c1-2 | 634 nM
28 | Cc1cc(C2=NNC(=NC3CC3)SC2)c(C)n1-c1ccccc1 | < 38 nM
29 | O=c1c2ccccc2oc2cc(C#CC3(O)CCCCC3)ccc12 | 1840 nM
30 | COc1ccccc1C(=O)Nc1nc2ccccc2s1 | 204 nM
31 | Cc1nc(SCC(=O)Nc2nc3ccccc3s2)c(C#N)c(C)c1C | < 38 nM
32 | CCC1CN2CCc3cc(OC)c(OC)cc3C2CC1CC1NCCc2c1[nH]c1ccc(O)cc21 (centres undefined) | 216 nM
33 | NC(=O)c1cc([N+](=O)[O-])ccc1NCc1ccc(N)cc1 | 490 nM
34 | Nc1ccc(Oc2cccc(Oc3ccc(N)cc3)c2)cc1 | 587 nM
35 | Cc1ccc(C(=O)O/N=C(\N)c2ccccn2)cc1C | 708 nM
36 | O=C(/C=C/c1ccccc1)Nc1cccc(C(=O)O)c1 | 392 nM
37 | Cc1c(C(=O)OCc2ccccc2)[nH]c2c1C(=O)CC(c1ccco1)C2 (centres undefined) | 388 nM
38 | Cn1ncnc2c(=O)n(C)c(=O)nc1-2 | 135 nM
39 | Cc1cccc2cc(C#N)c(SCC(=O)N3CC(=O)Nc4ccccc43)nc12 | 960 nM
40 | COc1ccc(C[C@H]2NC[C@H](O)[C@H]2OC(C)=O)cc1 | 378 nM
41 | COc1ccc(C2=Nn3c(nnc3-c3ccccc3OC)SC2)cc1OC | 395 nM
42 | Cc1ccc(C(=O)c2cc([N+](=O)[O-])ccc2N2CCOCC2)c(C)c1 | 2940 nM
43 | CC(=O)O[C@H]1[C@H]2O[C@]23[C@@H]2CC[C@]4(O)C[C@@H](O)CC[C@]4(C)C2CC[C@]3(C)[C@H]1c1ccc(=O)oc1 (some centres undefined) | 120 nM
44 | COc1cc(-c2noc(C)c2-c2ccc(N(C)C)nc2)cc(OC)c1OC | 358 nM

Row | Structure (SMILES) | AC50
45 | C[C@]12CC[C@H](O)C[C@H]1CC[C@@H]1[C@@H]2CC[C@]2(C)[C@@H](C3=CC(=O)OC3)CC[C@]12O | 235 nM
46 | CC(C)(C)C(=O)Nc1ccc(NC(=O)c2ccco2)nc1 | 244 nM
47 | Clc1ccccc1/C=C/c1nc(-c2ccccn2)no1 | 540 nM
48 | CC(=O)c1sc2c(c1OC(=O)c1ccc(Cl)cc1Cl)c(=O)n(-c1ccccc1)c(=S)n2-c1ccccc1 | 452 nM
49 | COC1C=CC=C(C)C(=O)NC2=CC(=O)C(N)=C(CC(C)CC(OC)C(O)C(C)C=C(C)C1OC(N)=O)C2=O (centres undefined) | < 38 nM
50 | CCCCCOC(=O)c1[nH]c2c(c1C)C(=O)CC(c1ccco1)C2 (centres undefined) | 226 nM
51 | CCOc1ccc(OCc2cccc(C(=O)N3CCOCC3)c2)cc1 | 573 nM
52 | C/C(=N\NC(=O)c1n[nH]c2c1CCC2)c1cccs1 | 401 nM
53 | COC(=O)C12OCC34C(CC5C(C)=C(O)C(=O)CC5(C)C3C(O)C1O)OC(=O)C(OC(=O)C=C(C)C)C24 (centres undefined) | < 38 nM
54 | CN=c1scc(-c2ccccc2F)n1/N=C/c1ccc[nH]1 | < 38 nM
55 | Cc1ccc2oc(/N=C(\N)NC(=O)C(C)(C)C)nc2c1 | < 38 nM
56 | Cc1nc(SCC(=O)Nc2nccs2)c(C#N)c(C)c1C | 991 nM
57 | C[C@@H]1O[C@@H](O[C@@H]2C=C3CCC4C(CC[C@]5(C)[C@@H](c6ccc(=O)oc6)CC[C@]45O)[C@@]3(C)CC2)[C@H](O)[C@H](O)[C@H]1O (some centres undefined) | < 38 nM
58 | Cc1ccc(CCC(=O)Nc2ncc(Cc3cccc(Cl)c3Cl)s2)o1 | 358 nM
59 | COc1cc(/C=N/O)ccc1OCc1ccc(C(=O)O)cc1 | 226 nM
60 | Cc1cc(C=C2C(=O)c3ccccc3C2=O)c(C)n1-c1ccccc1 | 809 nM
61 | COc1ccc(OC)c(N/C=C/C(=O)c2ccccc2)c1 | 558 nM
62 | CCCS(=O)(=O)c1cnc(C2COc3ccccc3O2)nc1N (centres undefined) | 487 nM
63 | COC(=O)c1c(NC(=O)c2ccc([N+](=O)[O-])o2)sc2c1CCN(C(C)C)C2 | 2860 nM
64 | COc1cc(OC)c2c(-c3cccc(-c4ccc(C(C)=O)cc4)c3)cc(=O)oc2c1 | 1580 nM
65 | Cc1ccc(C(=O)O/N=C(\N)c2ccccn2)cc1 | 213 nM
66 | CSc1nc(-c2ccccc2)nc(C(Cl)Cl)n1 | 1270 nM

Row | Structure (SMILES) | AC50
67 | O=C(CSc1nnc(-c2ccccc2)o1)Nc1ccccc1F | 675 nM
68 | O=C1c2cccc3cc([N+](=O)[O-])cc(c23)C(=O)N1CCN1CCCC1 | 521 nM
69 | O=C(/C=C\Nc1ccc2c(c1)OCO2)c1ccccn1 | 173 nM
70 | CCCc1ccc(C(=O)O/N=C(\N)c2ccccn2)cc1 | 1080 nM
71 | O=C(O)c1ccc(N/N=C/c2ccc3nccnc3c2)cc1 | 560 nM
72 | COc1ccc2[nH]c(-c3cccc(F)c3)cc(=O)c2c1 | 1550 nM
73 | Cc1cccc(/C=N/Nc2ccc3ccccc3n2)c1 | 456 nM
74 | COCCn1c(C)cc(C(=O)CSc2nnnn2C2CCCC2)c1C | 1140 nM
75 | Cc1ccsc1/C=N/Nc1cccc(C(=O)O)c1 | 355 nM
76 | O=C(N/N=C/c1ccccc1)c1[nH]c2ccc(Br)cc2c1-c1ccccc1 | 460 nM
77 | CN(c1ccc2nc3ccccc3c(=O)n2n1)C1CCCCC1 | 574 nM
78 | COC(=O)CCn1nnc(-c2ccc(C(C)C)cc2)n1 | 314 nM
79 | COc1ccc(-c2nc(-c3ccccn3)no2)cc1 | 209 nM
80 | Cc1cc(C(=O)COC(=O)C2=COCCO2)c(C)n1-c1ccccc1 | 1170 nM
81 | Cc1ccc(C(=O)Nc2ncc(Cc3ccc(SC(F)F)cc3)s2)cc1 | 1560 nM
82 | CC1CCC/C=C/C2CC(O)CC2C(O)/C=C/C(=O)O1 (centres undefined) | 51 nM
83 | O=C(Nc1cc2ccccc2oc1=O)c1ccccc1 | 696 nM
84 | COCCn1c(C)cc(C(=O)CSc2nnc(C)s2)c1C | 696 nM
85 | COc1cc(-c2noc(C)c2/C=C/c2cccc([N+](=O)[O-])c2)cc(OC)c1OC | 2540 nM
86 | Cc1ccc(-c2nc(-c3ccccn3)no2)cc1 | 140 nM
87 | Cc1ccc(-c2cn3cc(C)ccc3n2)cc1 | 113 nM
88 | Cc1ccc(-c2cc(C(=O)N/N=C/c3c(C)nn(-c4ccccc4)c3C)[nH]n2)cc1 | 3000 nM

Row | Structure (SMILES) | AC50
89 | Cc1cc(C)c(C#N)c(SCc2nnc(-c3ccccc3)o2)n1 | 1990 nM
90 | OCC1OC(n2ccc3c(NO)ncnc32)C(O)C1O (centres undefined) | 189 nM
91 | CCOc1ccc2c(c1)C(C)=CC(C)(C)N2S(=O)(=O)c1ccc(C)cc1 | 1590 nM
92 | CCN1/C(=C\C=C\C2=[N+](CC)c3ccccc3C2(C)C)C(C)(C)c2ccccc21 | 924 nM
93 | Cn1cc(/C=N/n2cnc3scc(-c4ccc(Cl)cc4)c3c2=O)c2ccccc21 | 499 nM
94 | Cc1ccc(C(=O)n2c(N)nc3ccccc32)cc1 | 493 nM
95 | O=C(Nc1ccc([N+](=O)[O-])cc1)C(=O)Nc1cccc(C(=O)O)c1 | 164 nM
96 | CCCN1C=CC(=C2C(=O)c3ccccc3C2=O)C=C1 | 169 nM
97 | COC(=O)C12OCC34C(CC5C(C)=C(O)C(=O)CC5(C)C3C(O)C1O)OC(=O)C(OC(=O)/C=C(\C)C(C)C)C24 (centres undefined) | < 38 nM
98 | CCCC1=Nc2cc(C(=O)NCCCOCC)ccc2Sc2ccccc21 | 434 nM
99 | C=CC[n+]1c(-c2ccc(C)cc2)csc1Nc1ccc(NC(C)=O)cc1 | 3620 nM
100 | C[C@H]1CCC/C=C/[C@@H]2C[C@H](O)C[C@H]2[C@@H](O)/C=C/C(=O)O1 | < 38 nM
101 | COc1ccc(-c2cc(-c3cccs3)c(C#N)c(SCC(=O)NCc3ccco3)n2)cc1 | 1530 nM
102 | COC(=O)C1=C(C(=O)OC)SC2(S1)C(C(=O)OC)=C(C(=O)OC)Sc1c2ssc1=O | 2620 nM
103 | COc1ccc(S(=O)(=O)N2c3cc(Cl)ccc3Oc3nc4ccccc4nc32)cc1 | 1350 nM
104 | CC1=Nc2cc(C(=O)NCc3ccco3)ccc2Sc2ccc(C)cc21 | 1670 nM
105 | CCCSc1ccc2nc(-c3ccccc3)cn2c1 | 487 nM
106 | Cc1cc(C(=O)COC(=O)c2ccccc2O)c(C)n1CC1CCCO1 (centres undefined) | < 38 nM
107 | O=c1c(Cl)c(N2CCCCC2)cnn1-c1nc2ccccc2[nH]1 | 501 nM
108 | Nc1ncnc2c(C3OC(CO)C(O)C3O)scc12 (centres undefined) | 2450 nM
109 | CN(C)c1ccc(CCc2ccc(N)cc2)cc1 | 831 nM
